Measured values taken from patent US20020002171A1, “Materials and methods for killing nematodes and nematode eggs” (priority 2000, published 2002).

Test system: Caenorhabditis elegans
Experiment: C. elegans L1 nematicidal dose response in 96-well plates, 5 day visual score (Example 2; same procedure for Example 7, Table 3)
Format: in vivo
Design: key to 5 Day Visual Score V1 / 5 Day Visual Score V2 / 5 Day Visual Score V3 / 5 Day Visual Score V4 / 5 Day Visual Score V6 / 5 Day Visual Score V5 / Initial HTS Run Visual Score / Follow-up HTS Run Visual Score: Dead: only stiff L1s (no movement); Dead (L4): worms are dead, but at a later larval stage; majority of worms are L1 (based on size) worms move when plate is tapped; majority of worms are L2 (based on size); majority of worms are L3 (based on size); majority of worms are L4 (based on size); AD: majority of worms are adult; #AD: 5 adult worms or less; B!: sterile (0-25 progeny); B: low broodsize (25-100 progeny); ˜B: moderate broodsize (100-250 progeny); <: reduced broodsize (250-500 progeny); OK: no effect (˜1000+ progeny)
Details: for 5 Day Visual Score V1 / 5 Day Visual Score V2 / 5 Day Visual Score V4 / 5 Day Visual Score V5 / 5 Day Visual Score V6 / 5 Day Visual Score V3: dose response; for 5 Day Visual Score V1: dilution V1, day 5; for 5 Day Visual Score V2: dilution V2, day 5; for 5 Day Visual Score V4: dilution V4, day 5; for 5 Day Visual Score V5: dilution V5, day 5; for 5 Day Visual Score V6: dilution V6, day 5; for 5 Day Visual Score V3: dilution V3, day 5
Summary of the method: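 Scoring was by eye at 100× on day 5, after incubation at 20° C, of 20 C. elegans L1s per well fed 1% E. coli HB101 in NGM. Compound columns V1–V6 spanned 70 μM to 0.3 μM in 3-fold steps, with 1.4% DMSO in the top well and as control.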

| SMILES | Follow-up HTS Run % Run [%] | Follow-up HTS Run Visual Score | Follow-up HTS Run mOD [mOD] | Initial HTS Run % Run [%] | Initial HTS Run Visual Score | Initial HTS Run mOD [mOD] | 5 Day Visual Score V1 | 5 Day Visual Score V2 | 5 Day Visual Score V4 | 5 Day Visual Score V5 | 5 Day Visual Score V6 | 5 Day Visual Score V3 |
| --- | --- | --- | --- | --- | --- | --- | --- | --- | --- | --- | --- | --- |
| Fc1ccc(N2CCN(c3nc(NCCc4ccc(Oc5ccccc5)cc4)ns3)CC2)cc1 [compound 268] | 96 | Dead | 154 | 128 | Dead | 141 | Dead | Dead | L4#AD/B | OK (no effect (˜1000+ progeny)) | B (low broodsize (25-100 progeny)) |  |
| Cc1cccc(C)c1N1CCN(c2nc(NCCc3ccc(Oc4ccccc4)cc3)ns2)CC1 [compound 269] | 132 | L4/AD/B | 212 | 166 | L4/1AD/B | 183 | Dead |  | OK (no effect (˜1000+ progeny)) | OK (no effect (˜1000+ progeny)) | OK (no effect (˜1000+ progeny)) | OK (no effect (˜1000+ progeny)) |
| CCCCCCCCCCCCCCCCCCN(C)c1nc(NCCc2ccc(Oc3ccccc3)cc2)ns1 [compound 270] | 113 |  | 182 | 149 |  | 164 | Dead |  | OK (no effect (˜1000+ progeny)) | OK (no effect (˜1000+ progeny)) | OK (no effect (˜1000+ progeny)) |  |
| COc1ccc(CNc2nsc(N3CCN(c4ccc(F)cc4)CC3)n2)cc1 [compound 271] | 109 |  | 175 | 101 | L4/AD/B | 111 | Dead |  | < (reduced broodsize (250-500 progeny)) | OK (no effect (˜1000+ progeny)) | < (reduced broodsize (250-500 progeny)) |  |
| C=CCN(CC=C)c1nc(NCC(c2ccccc2)c2ccccc2)ns1 [compound 272] | 110 |  | 177 | 108 | L3 | 119 | Dead | B (low broodsize (25-100 progeny)) | OK (no effect (˜1000+ progeny)) | OK (no effect (˜1000+ progeny)) | OK (no effect (˜1000+ progeny)) | OK (no effect (˜1000+ progeny)) |
| CCCCCCCCCCNc1nsc(N2CCN(c3ccc(F)cc3)CC2)n1 [compound 273] | 94 | Dead | 151 | 101 |  | 111 | Dead | Dead | ˜B (moderate broodsize (100-250 progeny)) | OK (no effect (˜1000+ progeny)) | OK (no effect (˜1000+ progeny)) | B (low broodsize (25-100 progeny)) |
| CCCCCCCCCCNc1nsc(N2CCN(c3ncccn3)CC2)n1 [compound 274] | 116 | Dead | 187 | 111 | Dead | 122 | Dead | Dead | B (low broodsize (25-100 progeny)) | OK (no effect (˜1000+ progeny)) | OK (no effect (˜1000+ progeny)) |  |
| CCCCCCCCCCNc1nsc(N2CCN(c3c(C)cccc3C)CC2)n1 [compound 275] | 105 | Dead | 169 | 95 | Dead | 105 | Dead | Dead | OK (no effect (˜1000+ progeny)) | OK (no effect (˜1000+ progeny)) | OK (no effect (˜1000+ progeny)) | OK (no effect (˜1000+ progeny)) |
| CCCCCCCCCCNc1nsc(N(CC)C2CCCCC2)n1 [compound 276] | 116 | Dead | 187 | 116 | Dead | 128 | Dead | Dead | OK (no effect (˜1000+ progeny)) | OK (no effect (˜1000+ progeny)) | OK (no effect (˜1000+ progeny)) |  |
| CCCCCCCCCCNc1nsc(N(CC(CC)CCCC)CC(CC)CCCC)n1 (stereo not shown) [compound 278] | 109 | Dead | 175 | 112 | Dead | 123 | Dead | Dead | OK (no effect (˜1000+ progeny)) | OK (no effect (˜1000+ progeny)) | OK (no effect (˜1000+ progeny)) | ˜B (moderate broodsize (100-250 progeny)) |
| CCCCCCCCCCNc1nsc(N(CCCC)Cc2ccccc2)n1 [compound 279] | 131 | Dead | 211 | 144 | Dead | 158 | Dead | Dead | OK (no effect (˜1000+ progeny)) | OK (no effect (˜1000+ progeny)) | OK (no effect (˜1000+ progeny)) |  |
| CCCCCCCCCCNc1nsc(N(CC)Cc2ccccc2)n1 [compound 280] | 122 | Dead | 196 | 144 | Dead | 158 | Dead | Dead | OK (no effect (˜1000+ progeny)) | OK (no effect (˜1000+ progeny)) | OK (no effect (˜1000+ progeny)) | ˜B (moderate broodsize (100-250 progeny)) |
| CCCCCCCCCCNc1nsc(N(CC(C)C)CC(C)C)n1 [compound 281] | 128 | Dead | 206 | 141 | Dead | 155 | Dead | Dead | OK (no effect (˜1000+ progeny)) | OK (no effect (˜1000+ progeny)) | OK (no effect (˜1000+ progeny)) |  |
| C=CCN(CC=C)c1nc(NCCCCCCCCCC)ns1 [compound 282] | 122 | Dead | 197 | 135 | Dead | 148 | Dead | Dead | OK (no effect (˜1000+ progeny)) | OK (no effect (˜1000+ progeny)) | OK (no effect (˜1000+ progeny)) |  |
| CCCCCCCCCCNc1nsc(N(C)CCc2ccccc2)n1 [compound 283] | 120 | Dead | 193 | 131 | Dead | 144 | Dead | Dead | OK (no effect (˜1000+ progeny)) | OK (no effect (˜1000+ progeny)) | OK (no effect (˜1000+ progeny)) |  |
| CCCCCCCCCCNc1nsc(N(C)Cc2ccccc2)n1 [compound 284] | 122 | Dead | 196 | 142 | Dead | 156 | Dead | Dead | ˜B (moderate broodsize (100-250 progeny)) | OK (no effect (˜1000+ progeny)) | OK (no effect (˜1000+ progeny)) | Dead |
